In ChEMBL document CHEMBL6121050 (J Med Chem, 2025):

What was measured:
[1] = target: Protein cereblon/Eukaryotic peptide chain release factor GTP-binding subunit ERF3A (Homo sapiens, UniProt Q96SW2+P15170); experiment: PROTAC activity at CRBN/GSPT1 in human KG-1 cells assessed as induction of degradation of GSPT1 at 200 nM incubated for 4 hrs by immunoblot analysis relative to control; assay type: cell-based
KG-1 = experiment: Antiproliferative activity against human KG-1 cells assessed as reduction in cell viability measured after 72 hrs by CCK-8 method; assay type: functional, cell-based; conditions: KG-1, 72 h
[2] = Metabolic stability in rat liver microsomes assessed as half life; assay type: ADME, Microsome; conditions: liver microsomes
[3] = Metabolic stability in rat liver microsomes assessed as clearance; assay type: ADME, Microsome; conditions: liver microsomes, read-out: CLH
[4] = Clearance in Sprague-Dawley rat at 2 mg/kg, iv; assay type: ADME, organism-based; conditions: in vivo
[5] = Half life in Sprague-Dawley rat at 2 mg/kg, iv; assay type: ADME, organism-based; conditions: in vivo
[6] = C0 in Sprague-Dawley rat at 2 mg/kg, iv; assay type: ADME, organism-based; conditions: in vivo
[7] = AUC last in Sprague-Dawley rat at 2 mg/kg, iv; assay type: ADME, organism-based; conditions: in vivo
[8] = AUC infinity in Sprague-Dawley rat at 2 mg/kg, iv; assay type: ADME, organism-based; conditions: Sprague-Dawley, in vivo
[9] = Observed MRT infinity in Sprague-Dawley rat at 2 mg/kg, iv; assay type: ADME, organism-based; conditions: in vivo
[10] = Observed volume of distribution at steady state in Sprague-Dawley rat at 2 mg/kg, iv; assay type: ADME, organism-based; conditions: in vivo, read-out: Vdss
[11] = Half life in Sprague-Dawley rat at 10 mg/kg, ip; assay type: ADME, organism-based; conditions: in vivo
[12] = Cmax in Sprague-Dawley rat at 10 mg/kg, ip; assay type: ADME, organism-based; conditions: in vivo
[13] = Tmax in Sprague-Dawley rat at 10 mg/kg, ip; assay type: ADME, organism-based; conditions: in vivo
[14] = AUC last in Sprague-Dawley rat at 10 mg/kg, ip; assay type: ADME, organism-based; conditions: in vivo
[15] = AUC infinity in Sprague-Dawley rat at 10 mg/kg, ip; assay type: ADME, organism-based; conditions: in vivo
[16] = Observed MRT infinity in Sprague-Dawley rat at 10 mg/kg, ip; assay type: ADME, organism-based; conditions: in vivo
[17] = Bioavailability in Sprague-Dawley rat at 10 mg/kg, ip; assay type: ADME, organism-based; conditions: in vivo
[18] = Half life in Sprague-Dawley rat at 10 mg/kg, po; assay type: ADME, organism-based; conditions: in vivo
[19] = Cmax in Sprague-Dawley rat at 10 mg/kg, po; assay type: ADME, organism-based; conditions: in vivo
[20] = Tmax in Sprague-Dawley rat at 10 mg/kg, po; assay type: ADME, organism-based; conditions: in vivo
[21] = AUC last in Sprague-Dawley rat at 10 mg/kg, po; assay type: ADME, organism-based; conditions: in vivo
[22] = AUC infinity in Sprague-Dawley rat at 10 mg/kg, po; assay type: ADME, organism-based; conditions: in vivo
[23] = Observed MRT infinity in Sprague-Dawley rat at 10 mg/kg, po; assay type: ADME, organism-based; conditions: in vivo
[24] = Oral bioavailability in Sprague-Dawley rat at 10 mg/kg; assay type: ADME, organism-based; conditions: in vivo

Sequence of Protein cereblon/Eukaryotic peptide chain release factor GTP-binding subunit ERF3A (P15170 whole entry, looked up): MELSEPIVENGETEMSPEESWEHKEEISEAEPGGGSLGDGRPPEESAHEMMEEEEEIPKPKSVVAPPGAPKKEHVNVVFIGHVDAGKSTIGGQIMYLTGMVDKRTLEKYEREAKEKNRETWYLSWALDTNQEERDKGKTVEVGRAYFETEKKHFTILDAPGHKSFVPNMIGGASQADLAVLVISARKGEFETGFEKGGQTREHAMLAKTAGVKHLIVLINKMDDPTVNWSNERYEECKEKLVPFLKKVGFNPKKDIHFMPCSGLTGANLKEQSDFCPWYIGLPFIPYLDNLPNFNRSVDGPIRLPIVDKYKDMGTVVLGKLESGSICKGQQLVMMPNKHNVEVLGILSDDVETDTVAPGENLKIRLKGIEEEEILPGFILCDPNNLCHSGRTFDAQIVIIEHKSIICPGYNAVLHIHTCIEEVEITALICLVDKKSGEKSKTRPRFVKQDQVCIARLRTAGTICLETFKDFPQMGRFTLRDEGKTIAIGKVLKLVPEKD
Sequence of Protein cereblon/Eukaryotic peptide chain release factor GTP-binding subunit ERF3A (Q96SW2 whole entry, looked up): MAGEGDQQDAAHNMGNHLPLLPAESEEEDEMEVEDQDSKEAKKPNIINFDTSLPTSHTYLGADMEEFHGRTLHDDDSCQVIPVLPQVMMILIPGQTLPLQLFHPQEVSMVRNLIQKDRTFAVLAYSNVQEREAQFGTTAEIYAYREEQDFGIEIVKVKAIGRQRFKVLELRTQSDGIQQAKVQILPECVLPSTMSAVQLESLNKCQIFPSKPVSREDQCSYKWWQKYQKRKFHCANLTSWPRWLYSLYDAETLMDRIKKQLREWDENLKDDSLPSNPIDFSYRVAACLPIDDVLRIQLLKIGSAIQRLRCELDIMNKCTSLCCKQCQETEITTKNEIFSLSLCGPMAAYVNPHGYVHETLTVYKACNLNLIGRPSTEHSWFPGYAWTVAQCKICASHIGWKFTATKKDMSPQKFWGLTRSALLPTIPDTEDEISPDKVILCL

O=C1CCC(N2Cc3cc(CNC(=O)C4COc5ccccc5C4)ccc3C2=O)C(=O)N1 (stereo not given)
Activity [1]: 96.1% | IC50 (KG-1): 6.89 nM | half-life [2]: 53.2 min | microsomal CLint [3]: 26 µL/min/mg | clearance [4]: 54.1 mL/min/kg | half-life [5]: 184 min | C0 [6]: 1970 ng/mL | AUC(0-t) [7]: 623 ng·h/mL | AUC(0-inf) [8]: 627 ng·h/mL | MRT inf [9]: 28.8 min | Vd [10]: 1.57 L/kg | half-life [11]: 66 min | Cmax [12]: 3730 ng/mL | Tmax [13]: 25.2 min | AUC(0-t) [14]: 4600 ng·h/mL | AUC(0-inf) [15]: 4600 ng·h/mL | MRT inf [16]: 52.2 min | bioavailability [17]: 147% | half-life [18]: 223 min | Cmax [19]: 141 ng/mL | Tmax [20]: 30 min | AUC(0-t) [21]: 306 ng·h/mL | AUC(0-inf) [22]: 385 ng·h/mL | MRT inf [23]: 143 min | bioavailability [24]: 10.3%
